Assay results reported in article PMC9293070, “Bioisosteric Modification of To042: Synthesis and Evaluation of Promising Use‐Dependent Inhibitors of Voltage‐Gated Sodium Channels” (Chemmedchem, 2021).
Where a name gives a salt, the structure may show the parent alone. Read-outs that look alike come from different tables or passages of the source.

Columns and labels:
[1] = Apparent permeability across Caco-2 monolayer (BA and AB); format: in vitro ADME; conditions: human, 120 min, HBSS pH 7.4; for Papp A→B at 120 min, 100 µM: Apical-to-Basolateral; for Papp B→A at 120 min, 100 µM: Basolateral-to-Apical
Experimental: (§1) Permeability experiments. Details for permeability experiments. Preparation of Caco‐2 monolayer. This procedure has been previously reported by Colabufo et al.[65] Briefly, Caco‐2 cells were harvested with trypsin‐EDTA and seeded onto MultiScreen Caco‐2 assay system at a density of 10,000 cells per well. The culture medium was replaced every 48 h for the first 6 days and every 24 h thereafter. After 21 days in culture, the Caco‐2 monolayer was utilized for the permeability experiments. The Trans Epithelial Electrical Resistance (TEER) of the monolayers was measured daily before and after the experiment using an epithelial voltohmmeter (Millicell®‐ERS; Millipore, Billerica, MA). […] Drug transport experiment. […] Drugs were dissolved in Hanks’ balanced salt solution (HBSS, pH 7.4) and sterile filtered. After 21 days of cell growth, the medium was removed from filter wells and from the receiver plate. The wells were filled with 75 μL of fresh HBSS buffer and the receiver plate with 250 μL per well of the same buffer. This procedure was repeated twice, and the plates were incubated at 37 °C for 30 min. After incubation, the HBSS buffer was removed and drug solutions added to the filter well (75 μL). HBSS without the drug was added to the receiver plate (250 μL). The plates were incubated at 37 °C for 120 min. After incubation, samples were removed from the apical (filter well) and basolateral (receiver plate) sides of the monolayer and stored at −20 °C up to analysis. Compounds were lyophilized at −52 °C and 0.06 bars for 24 h and desalted by adding 500 μL of CH3CN (in order to remove phosphate salts coming from HBSS), then 500 μL of Ammonium Acetate (50 mM, pH 5) were added. The resulting solutions were analyzed by ESI‐MS in order to determine the concentration of drug in the samples. The concentration of tested compounds was measured using UV spectroscopy. The apparent permeability (P app), in units of nm per second, was calculated using the following equation: […]
(§2) where V A is the volume (in mL) in the acceptor well; Area is the surface area of the membrane (0.11 cm^2 of the well); time is the total transport time in seconds (7200 s); [drug]acceptor is the concentration of the drug measured by ESI‐MS analyses or UV spectroscopy; [drug]initial is the initial drug concentration (1 ⋅ 10^−4 M) in the apical or basolateral wells.

hNav1.4 [2] = target: T1, hNav1.4 (Homo sapiens, UniProt P35499); conditions: cited from earlier work
P-gp = test: Apparent permeability across Caco-2 monolayer (BA and AB); format: in vitro ADME; conditions: human, pH 7.4; ratio of Papp BA to Papp AB
Experimental: as §1, §2

hNav1.4 [3] = target: T1, hNav1.4; test: Patch-clamp block of hNav1.4 sodium currents in HEK293T cells; format: cell-based; conditions: for IC50: HEK293T cells, value ± standard error of the fit; for TB/PB (ratio IC50 tonic block/IC50 phasic block): use-dependence
Experimental: Patch clamp experiments. Exploratory compounds were tested on sodium currents recorded in HEK293T cells (human embryonic kidney cell line) permanently expressing the wild‐type human Nav1.4 sodium channel, as previously described.[14, 61] Whole‐cell sodium currents were recorded at room temperature (∼22 °C) using Axon hardware and software (Axon Instruments Inc., Union City, CA, USA). Bath solution contained (mM): 150 NaCl, 4 KCl, 2 CaCl2, 1 MgCl2, 5 HEPES and 5 glucose (pH 7.4). Pipette solution contained (mM): 120 CsF, 10 CsCl, 10 NaCl, 5 EGTA, and 5 HEPES (pH 7.2). Pipette resistance was […]. Stabilization of the whole‐cell configuration was allowed for 5 minutes before to record sodium currents elicited from a holding potential of −120 mV using 25 ms‐long test pulses at −30 mV applied every 10 or 0.1 sec (0.1 and 10 Hz frequencies). The patched cell was continuously perfused by control or drug‐supplemented bath solution. To limit errors due to rundown and voltage‐dependence shifts, no more than two drug concentrations were tested on each cell. The I DRUG/I CTRL ratio (mean±S.E.M. from at least 3 cells) was plotted against drug concentration.
The half‐maximum inhibitory concentration (IC50) and slope factor (nH) are given with the standard error of the fit.

HeLa cells [4] = test: Mitochondrial ROS production by DHR staining, flow cytometry; format: cell-based, human; conditions: 50 μM, compared with 13 a
Experimental: (§3) Cell culture. Cervical cancer cell lines (HeLa) were cultured in Dulbecco's modified eagle medium (DMEM) supplemented with 10 % fetal bovine serum (FBS), 1 % glutamine, and 1 % penicillin/streptomycin (all purchased from Euroclone, Italy) in a humidified incubator at 37 °C and 5 % CO2 and 95 % relative humidity.
(§4) Flow cytometry analysis. In order to detect ROS production after drugs treatment,[66, 67] cells at 3×10^5 cells were seeded in 6‐well plates in DMEM with 10 % FBS and cultured overnight. The following day, cells were washed twice with PBS and kept in DMEM without FBS for 2 h. […] Antibiotics were omitted during pharmacological compound assays. After incubation period, cells were washed twice with HBSS, and stained with 5 μM of 2′,7′‐dichorofluorescein (DCFA‐DA) and dihydrorhodamine (DHR) (Thermo Fischer Scientific, Italy) for 30 min in dark. After washing, cells were resuspended in HBSS and analyzed using an Attune Acoustic Focusing Cytometer (Thermo Fisher Scientific) equipped with a 488 nm laser. Thereafter, DCFA‐DA stained cells were co‐stained with 1 μg/mL of 7‐aminoactinomycin D (7‐AAD) (Thermo Fischer Scientific, Italy), incubated on ice for 45 min in dark in order to asses viable and non‐viable cells, and then flow cytometry analysis was carried out.

HeLa cells [5] = test: ROS production by DCF staining, flow cytometry; format: cell-based, human
Experimental: as §3, §4

HeLa cells [6] = test: Cell viability by 7-AAD co-staining, flow cytometry; format: cell-based, human; conditions: 1 and 50 μM, 24 h
Experimental: as §3, §4

[7] = 0.1 Hz stimulation, read-out: Tonic Block IC50 at 0.1 Hz
[8] = 10 Hz stimulation, read-out: Phasic Block IC50 at 10 Hz

T1 sequence (P35499 whole entry): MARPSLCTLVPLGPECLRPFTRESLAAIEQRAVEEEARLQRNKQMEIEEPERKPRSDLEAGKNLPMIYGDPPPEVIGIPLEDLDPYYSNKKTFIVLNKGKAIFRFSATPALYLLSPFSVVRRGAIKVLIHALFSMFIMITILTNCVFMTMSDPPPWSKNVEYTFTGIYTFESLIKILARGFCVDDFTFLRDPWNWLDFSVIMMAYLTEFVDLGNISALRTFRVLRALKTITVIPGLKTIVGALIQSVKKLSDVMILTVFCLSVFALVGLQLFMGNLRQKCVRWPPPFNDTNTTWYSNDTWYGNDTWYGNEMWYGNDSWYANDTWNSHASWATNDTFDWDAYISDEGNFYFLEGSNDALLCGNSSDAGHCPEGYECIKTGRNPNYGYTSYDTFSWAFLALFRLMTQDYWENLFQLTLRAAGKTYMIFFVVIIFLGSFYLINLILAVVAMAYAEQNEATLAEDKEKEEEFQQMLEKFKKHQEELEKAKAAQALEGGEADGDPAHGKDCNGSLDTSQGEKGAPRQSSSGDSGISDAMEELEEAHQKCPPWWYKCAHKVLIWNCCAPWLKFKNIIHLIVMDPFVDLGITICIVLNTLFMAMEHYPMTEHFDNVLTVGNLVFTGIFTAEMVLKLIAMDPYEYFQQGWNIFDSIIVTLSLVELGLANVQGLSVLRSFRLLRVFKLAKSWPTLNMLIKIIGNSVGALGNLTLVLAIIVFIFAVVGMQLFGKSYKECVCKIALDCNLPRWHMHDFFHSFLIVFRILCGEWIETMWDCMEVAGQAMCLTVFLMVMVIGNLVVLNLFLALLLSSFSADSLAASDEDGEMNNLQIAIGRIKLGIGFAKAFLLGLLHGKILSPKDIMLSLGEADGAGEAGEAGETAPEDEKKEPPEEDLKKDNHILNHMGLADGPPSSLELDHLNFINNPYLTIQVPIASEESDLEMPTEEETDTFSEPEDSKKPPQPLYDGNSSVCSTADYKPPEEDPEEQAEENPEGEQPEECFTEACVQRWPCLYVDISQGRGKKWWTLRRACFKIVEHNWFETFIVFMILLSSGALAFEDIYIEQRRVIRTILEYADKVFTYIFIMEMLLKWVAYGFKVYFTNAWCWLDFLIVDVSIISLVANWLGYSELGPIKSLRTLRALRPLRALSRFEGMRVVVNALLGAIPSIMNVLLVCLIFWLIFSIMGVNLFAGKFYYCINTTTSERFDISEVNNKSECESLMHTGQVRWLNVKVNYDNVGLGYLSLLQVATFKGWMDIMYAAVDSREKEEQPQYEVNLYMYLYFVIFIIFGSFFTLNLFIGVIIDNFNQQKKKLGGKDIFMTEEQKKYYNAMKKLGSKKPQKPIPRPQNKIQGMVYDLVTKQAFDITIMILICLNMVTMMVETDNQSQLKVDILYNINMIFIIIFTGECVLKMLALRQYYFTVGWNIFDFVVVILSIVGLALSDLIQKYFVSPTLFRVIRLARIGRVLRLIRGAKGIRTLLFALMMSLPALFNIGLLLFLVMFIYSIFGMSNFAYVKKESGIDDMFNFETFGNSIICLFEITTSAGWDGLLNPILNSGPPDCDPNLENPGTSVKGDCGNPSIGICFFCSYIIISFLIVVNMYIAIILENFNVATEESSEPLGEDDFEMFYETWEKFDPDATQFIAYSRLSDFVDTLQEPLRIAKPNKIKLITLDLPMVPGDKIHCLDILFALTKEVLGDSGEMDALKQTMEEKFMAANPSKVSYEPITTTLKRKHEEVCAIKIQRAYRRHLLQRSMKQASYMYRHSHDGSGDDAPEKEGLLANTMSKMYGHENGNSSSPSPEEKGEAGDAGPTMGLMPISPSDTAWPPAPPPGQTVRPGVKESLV

SMILES | melting point | Papp A→B at 120 min, 100 µM [1] | Papp B→A at 120 min, 100 µM [1] | nH (slope factor), tonic block (hNav1.4 [2]; 0.1 Hz stimulation) | nH (slope factor), phasic block (hNav1.4 [2]; 10 Hz stimulation) | efflux ratio at 120 min, 100 µM (P-gp) | nH (slope factor), tonic block (hNav1.4 [3]; 0.1 Hz stimulation) | IC50 (hNav1.4 [3]; [7]) | nH (slope factor), phasic block (hNav1.4 [3]; 10 Hz stimulation) | IC50 (hNav1.4 [3]; [8]) | TB/PB (ratio IC50 tonic block/IC50 phasic block) (hNav1.4 [3]) | other results
Cc1cccc(C)c1NC(=O)CC(C)NCc1ccc2ccccc2c1 (stereo not drawn) (as salt: hydrochloride) [13 b, N‐(2,6‐Dimethylphenyl)‐3‐[(naphthalen‐2‐ylmethyl)amino]butanamide] | 199 to 201 °C | – | – | – | – | – | – | – | – | – | – | –
Cc1cccc(C)c1OCCC(C)NCc1cccc2ccccc12 (stereo not drawn) (as salt: hydrochloride) [17 a, N‐[(Naphthalen‐1‐yl)methyl]‐4‐[(2,6‐dimethyl)phenoxy]butan‐2‐amine] | 183 to 184 °C | – | – | – | – | – | – | – | – | – | – | –
Cc1cccc(C)c1OCCC(C)NCc1ccc2ccccc2c1 (stereo not drawn) (as salt: hydrochloride) [17 b, N‐[(Naphthalen‐2‐yl)methyl]‐4‐[(2,6‐dimethyl)phenoxy]butan‐2‐amine] | 178 to 179 °C | – | – | – | – | – | – | – | – | – | – | –
Cc1cccc(C)c1NC(=O)CC(C)NCc1cccc2ccccc12 (stereo not drawn) [13 a, N‐(2,6‐Dimethylphenyl)‐3‐[(naphthalen‐1‐ylmethyl)amino]butanamide] | – | 56.6 ×10⁻⁶ cm/s | 223 ×10⁻⁶ cm/s | 1.3±0.1 | 0.8±0.1 | – | – | – | – | – | – | –
Cc1cccc(C)c1NC(=O)CC(C)NCc1ccc2ccccc2c1 (stereo not drawn) [13 b, N‐(2,6‐Dimethylphenyl)‐3‐[(naphthalen‐2‐ylmethyl)amino]butanamide] | – | 43.8 ×10⁻⁶ cm/s | 216 ×10⁻⁶ cm/s | – | – | 4.9 | 1.1±0.1 | 147 ± 12 µM | 0.8±0.1 | 14 ± 1.8 µM | 10.5 | –
Cc1cccc(C)c1OCCC(C)NCc1cccc2ccccc12 (stereo not drawn) [17 a, N‐[(Naphthalen‐1‐yl)methyl]‐4‐[(2,6‐dimethyl)phenoxy]butan‐2‐amine] | – | 25.9 ×10⁻⁶ cm/s | 180 ×10⁻⁶ cm/s | – | – | 7.1 | 1.2±0.2 | 1080 ± 150 µM | 0.8±0.1 | 57 ± 8 µM | 18.9 | mitochondrial ROS levels (DHR) (HeLa cells [4]): lower ROS levels; percentage of mitochondrial ROS producing cells (DHR) (HeLa cells [4]): lower percentage of ROS producing cells; percentage of ROS producing cells related to untreated cells (% DCF (+) cells) (HeLa cells [5]; 1 μM, 6 h exposure): no significant effects; percentage of ROS producing cells related to untreated cells (% DCF (+) cells) (HeLa cells [5]; 50 μM, 6 h exposure): significant cytoprotective effect; ROS production related to untreated cells (DCF fluorescence median) (HeLa cells [5]; 50 μM, 24 h exposure): ~3 fold; percentage of ROS producing cells related to untreated cells (% DCF (+) cells) (HeLa cells [5]; 24 h exposure, regardless of concentrations (1 and 50 μM)): prominent cytoprotective effect; cellular viability (7-AAD positive cells untreated related) (HeLa cells [6]): not affected; fold higher IC50 value at 10 Hz than To042 (hNav1.4 [3]; 10 Hz, relative to To042): 6 fold
Cc1cccc(C)c1OCCC(C)NCc1ccc2ccccc2c1 (stereo not drawn) [17 b, N‐[(Naphthalen‐2‐yl)methyl]‐4‐[(2,6‐dimethyl)phenoxy]butan‐2‐amine] | – | 49.6 ×10⁻⁶ cm/s | 199 ×10⁻⁶ cm/s | – | – | 4 | 0.9±0.1 | 88 ± 11 µM | 1.1±0.1 | 8.8 ± 0.6 µM | 10 | –
Cc1cccc(C)c1OCC(C)N (stereo not drawn) [mexiletine] | – | – | – | 1.2±0.1 | 0.9±0.1 | – | – | – | – | – | – | IC50 (hNav1.4 [2]; [7]): 256 ± 25 µM; IC50 (hNav1.4 [2]; [8]): 46 ± 5 µM
Cc1cccc(C)c1NC(=O)C(C)N (stereo not drawn) [tocainide] | – | 49.6 ×10⁻⁶ cm/s | 196 ×10⁻⁶ cm/s | 1.0±0.1 | 1.1±0.2 | 3.9 | – | – | – | – | – | IC50 (hNav1.4 [2]; [7]): 700 ± 70 µM; IC50 (hNav1.4 [2]; [8]): 182 ± 24 µM; TB/PB (ratio IC50 tonic block/IC50 phasic block) (hNav1.4 [2]; use-dependence): 3.8
